Assay results taken from PubChem BioAssay (NCI).
Values joined by “and” are separate entries in the source; they are usually repeats but may differ in a detail not shown here. Equal entries are not always repeated.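 Cultured in 96-well plates, cells were exposed to test compound for 48 hours across five concentrations. At the GI50, growth is halved. Definition used: TGI = concentration required for complete inhibition of growth.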

Legend:
Experiment in all cases: growth of human tumour cells (NCI), 48 h
[1] = tested on: A498 renal
[2] = tested on: A549 NSCLC
[3] = tested on: BT-549 breast
[4] = tested on: CAKI-1 renal
[5] = tested on: COLO 205 colon
[6] = tested on: DU-145 prostate
[7] = tested on: EKVX NSCLC
[8] = tested on: HCT-15 colon
[9] = tested on: HL-60(TB) leukemia
[10] = tested on: HOP-62 NSCLC
[11] = tested on: HOP-92 NSCLC
[12] = tested on: HS 578T breast
[13] = tested on: HT29 colon
[14] = tested on: IGROV1 ovarian
[15] = tested on: M14 melanoma
[16] = tested on: MALME-3M melanoma
[17] = tested on: MCF7 breast
[18] = tested on: MOLT-4 leukemia
[19] = tested on: NCI-H226 lung
[20] = tested on: NCI-H23 lung
[21] = tested on: NCI-H460 lung
[22] = tested on: NCI-H522 lung
[23] = tested on: OVCAR-4 ovarian
[24] = tested on: OVCAR-5 ovarian
[25] = tested on: OVCAR-8 ovarian
[26] = tested on: PC-3 prostate
[27] = tested on: RPMI-8226 leukemia
[28] = tested on: SF-268 CNS
[29] = tested on: SF-295 CNS
[30] = tested on: SF-539 CNS
[31] = tested on: SK-MEL-2 melanoma
[32] = tested on: SK-MEL-28 melanoma
[33] = tested on: SK-MEL-5 melanoma
[34] = tested on: SK-OV-3 ovarian
[35] = tested on: SN12C renal
[36] = tested on: SNB-19 CNS
[37] = tested on: SNB-75 CNS
[38] = tested on: T-47D breast
[39] = tested on: TK-10 renal
[40] = tested on: U251 CNS
[41] = tested on: UACC-257 melanoma
[42] = tested on: UACC-62 melanoma
[43] = tested on: UO-31 renal
[44] = tested on: 786-0 renal
[45] = tested on: ACHN renal
[46] = tested on: CCRF-CEM leukemia
[47] = tested on: HCC-2998 colon
[48] = tested on: HCT-116 colon
[49] = tested on: KM12 colon
[50] = tested on: LOX IMVI melanoma
[51] = tested on: MDA-MB-231 breast
[52] = tested on: MDA-MB-435
[53] = tested on: NCI/ADR-RES ovarian
[54] = tested on: OVCAR-3 ovarian
[55] = tested on: RXF 393 renal
[56] = tested on: SW-620 colon
[57] = tested on: K-562 leukemia

Molecule `CCOC(=O)c1c2c(n3ccc(NC(=O)OC(C)(C)C)cc13)C(=O)c1ncccc1C2=O` has a GI50 [1] of 33.9 nM, a TGI [1] of 4440 nM and a GI50 [2] of 186 nM. It also gave a TGI [2] of 1250 nM, a GI50 [3] of 179 nM and a TGI [3] of 2020 nM. For the same molecule, the GI50 [4] was 38.9 nM, the TGI [4] was 1580 nM and the GI50 [5] was 352 nM. The TGI [5] was 1560 nM, the GI50 [6] was 65.3 nM and the TGI [6] was 1660 nM. The GI50 [7] was 168 nM, the TGI [7] was 2030 nM and the GI50 [8] was 19.5 nM. The TGI [8] was 1490 nM, the GI50 [9] was 25.6 nM and the TGI [9] was 380 nM. It also gave a GI50 [10] of 143 nM, a TGI [10] of 700 nM and a GI50 [11] of 137 nM. The TGI [11] was 927 nM, the GI50 [12] was 1210 nM and the TGI [12] was 4650 nM. It also gave a GI50 [13] of 638 nM, a TGI [13] of 2220 nM and a GI50 [14] of 152 nM. It also gave a TGI [14] of 2280 nM, a GI50 [15] of 44.5 nM and a TGI [15] of 1260 nM. It also gave a GI50 [16] of 99.7 nM, a TGI [16] of 1270 nM and a GI50 [17] of 17.4 nM. The TGI [17] was 202 nM, the GI50 [18] was 780 nM and the TGI [18] was 7520 nM. For the same molecule, the GI50 [19] was 174 nM, the TGI [19] was 757 nM and the GI50 [20] was 147 nM. The TGI [20] was 669 nM, the GI50 [21] was 27.3 nM and the TGI [21] was 123 nM. The GI50 [22] was 179 nM, the TGI [22] was 817 nM and the GI50 [23] was 291 nM. The TGI [23] was 3220 nM, the GI50 [24] was 97.1 nM and the TGI [24] was 1650 nM. For the same molecule, the GI50 [25] was 148 nM, the TGI [25] was 2090 nM and the GI50 [26] was 250 nM. The TGI [26] was 2050 nM, the GI50 [27] was 387 nM and the TGI [27] was 3160 nM. For the same molecule, the GI50 [28] was 71.3 nM, the TGI [28] was 1910 nM and the GI50 [29] was 272 nM. The TGI [29] was 1130 nM, the GI50 [30] was 118 nM and the TGI [30] was 549 nM. It also gave a GI50 [31] of 440 nM, a TGI [31] of 9240 nM and a GI50 [32] of 232 nM. For the same molecule, the TGI [32] was 1400 nM, the GI50 [33] was 174 nM and the TGI [33] was 388 nM. It also gave a GI50 [34] of 236 nM, a TGI [34] of 1480 nM and a GI50 [35] of 71 nM. It also gave a TGI [35] of 1210 nM, a GI50 [36] of 159 nM and a TGI [36] of 1360 nM. It also gave a GI50 [37] of 167 nM, a TGI [37] of 1720 nM and a GI50 [38] of 382 nM. For the same molecule, the TGI [38] was 5310 nM, the GI50 [39] was 132 nM and the TGI [39] was 3390 nM. The GI50 [40] was 46.5 nM, the TGI [40] was 1250 nM and the GI50 [41] was 265 nM. For the same molecule, the TGI [41] was 919 nM, the GI50 [42] was 138 nM and the TGI [42] was 639 nM. For the same molecule, the GI50 [43] was 15.3 nM and the TGI [43] was 397 nM.

With `CCOC(=O)c1c2c(n(-c3ccc(OC)cc3)c1C)C(=O)C(=O)c1ccccc1-2` the TGI [44] was 3500 nM, the GI50 [1] was 1760 nM and the TGI [1] was 3970 nM. The TGI [2] was 4460 nM, the TGI [45] was 2360 nM and the TGI [3] was 4320 nM. For the same molecule, the TGI [4] was 2820 nM, the TGI [46] was > 100000 nM and the TGI [5] was 5310 nM. For the same molecule, the TGI [6] was 3060 nM, the TGI [7] was 4090 nM and the TGI [47] was 3380 nM. It also gave a TGI [48] of 3000 nM, a TGI [8] of 8130 nM and a TGI [10] of 3460 nM. For the same molecule, the TGI [11] was 3980 nM, the TGI [12] was 6320 nM and the TGI [13] was > 22700 nM. For the same molecule, the TGI [14] was 12700 nM, the TGI [49] was 3610 nM and the TGI [50] was 2490 nM. The TGI [15] was 3170 nM, the TGI [16] was 605 nM and the TGI [17] was 6240 nM. The TGI [51] was 4370 nM, the TGI [52] was 351 nM and the GI50 [18] was 1660 nM. For the same molecule, the TGI [18] was > 100000 nM, the TGI [19] was 4120 nM and the TGI [20] was 3240 nM. For the same molecule, the TGI [21] was 5360 nM, the TGI [22] was > 20400 nM and the TGI [53] was 2010 nM. For the same molecule, the TGI [54] was 1340 nM, the TGI [23] was 3440 nM and the TGI [24] was 3460 nM. The TGI [25] was 2760 nM, the TGI [26] was 5700 nM and the TGI [27] was 2860 nM. It also gave a TGI [55] of 4050 nM, a TGI [28] of 3760 nM and a TGI [29] of 3170 nM. The TGI [30] was 1760 nM, the TGI [31] was > 21800 nM and the TGI [32] was 3890 nM. It also gave a TGI [33] of 2590 nM, a TGI [34] of 6030 nM and a TGI [35] of 3190 nM. The TGI [36] was 19000 nM, the TGI [37] was 4090 nM and the TGI [56] was 8090 nM. It also gave a TGI [38] of 4440 nM, a TGI [39] of 3330 nM and a TGI [40] of 2630 nM. The TGI [41] was 1110 nM and the TGI [42] was 3280 nM.

With `CC(=O)NC1C(OCc2ccccc2)OC(CO)C(O)C1OCC(=O)NC(C)C(=O)NC(CCC(=O)NCCCCCNc1c2ccccc2nc2cccc([N+](=O)[O-])c12)C(N)=O` (stereo not drawn) the TGI [44] was 0.206 nM, the TGI [1] was < 0.1 nM and the TGI [2] was 1.42 nM. For the same molecule, the TGI [45] was < 0.1 nM, the TGI [3] was < 0.1 nM and the TGI [4] was < 0.1 nM. The TGI [5] was < 0.1 nM, the TGI [47] was < 0.1 nM and the TGI [48] was < 0.1 nM. The TGI [8] was < 0.1 nM, the TGI [9] was 45.5 nM and the TGI [11] was 3.11 nM. The TGI [13] was < 0.1 nM, the GI50 [14] was 12.4 nM and the TGI [57] was < 0.1 nM. The TGI [49] was < 0.1 nM, the TGI [50] was 14.7 nM and 14 nM and the TGI [15] was < 0.1 nM. For the same molecule, the TGI [16] was < 0.1 nM, the TGI [17] was < 0.1 nM and the TGI [51] was < 0.1 nM. The TGI [52] was < 0.1 nM, the TGI [19] was 2.54 nM and the TGI [22] was 4.5 nM. For the same molecule, the TGI [23] was 6.15 nM, the TGI [25] was 17 nM and the TGI [26] was < 0.1 nM. For the same molecule, the TGI [27] was < 0.1 nM, the TGI [28] was < 0.1 nM and the TGI [29] was 26.5 nM. For the same molecule, the TGI [30] was 1.16 nM, the TGI [31] was < 0.1 nM and the TGI [32] was < 0.1 nM. For the same molecule, the TGI [33] was 1.24 nM, the TGI [35] was < 0.1 nM and the TGI [37] was 1.64 nM. The TGI [56] was 0.315 nM, the GI50 [39] was < 0.1 nM and the TGI [39] was 1540 nM. For the same molecule, the TGI [40] was < 0.1 nM and the TGI [41] was 3.32 nM.
